The values below come from paper PMC4901301 (Scientific Reports, 2016).

≈ marks a conversion by molar mass, not a printed value. Read-outs that look alike come from different tables or passages of the source. Some results are limits rather than exact numbers.

The target in assay [1] is Mtb gyrase (Mycobacterium tuberculosis, UniProt P9WG45). The assay is described as follows: Mtb gyrase supercoiling assay. The assay is classed as biochemical. On the procedure:
Mtb gyrase supercoiling assays were carried out as described previously.

In assay [2] the target is Mtb ThyX (Mycobacterium tuberculosis, UniProt P9WG57). The assay is described as follows: Mtb ThyX tritium release assay. Format: biochemical. Particulars: for % of ThyX inhibition at 100 µM: actual measured data; for Ki: read-out: Ki against Mtb ThyX.
Assay [3] concerns Mtb H37Rv. The assay is described as follows: Resazurin (Alamar Blue) drug susceptibility testing, H37Rv. Format: cell-based, Mycobacterium tuberculosis. A general note: The colour change of resazurin is a common sign of viable cells or microbes.
In assay [4] the test system is Mtb TH 12526. The assay is described as follows: Resazurin (Alamar Blue) drug susceptibility testing, TH 12526. Format: cell-based, Mycobacterium tuberculosis.
The test system of assay [5] is Mtb H37Rv. The assay is described as follows: Broth microdilution susceptibility of Mtb H37Rv. Format: cell-based, Mycobacterium tuberculosis. Particulars: replicating Mtb H37Rv, read-out: MIC90 (µM) against H37Rv.
Assay [6] relates to Mtb. The arrangement: method as in earlier work. As to conditions: cited from earlier work.
The mark [7] stands for this setting: menadione analogs, 7H9 media with 1% ethanol as a co-solvent, read-out: MIC (H37Rv).

Mtb ThyX, sequence (P9WG57 whole entry): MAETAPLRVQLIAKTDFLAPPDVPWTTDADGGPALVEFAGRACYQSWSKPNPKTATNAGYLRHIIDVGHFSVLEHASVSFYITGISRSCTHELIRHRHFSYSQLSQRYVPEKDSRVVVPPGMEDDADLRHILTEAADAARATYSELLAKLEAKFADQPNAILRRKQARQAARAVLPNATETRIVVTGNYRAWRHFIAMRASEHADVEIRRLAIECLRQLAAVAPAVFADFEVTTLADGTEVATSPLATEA
Mtb gyrase, sequence (P9WG47 whole entry): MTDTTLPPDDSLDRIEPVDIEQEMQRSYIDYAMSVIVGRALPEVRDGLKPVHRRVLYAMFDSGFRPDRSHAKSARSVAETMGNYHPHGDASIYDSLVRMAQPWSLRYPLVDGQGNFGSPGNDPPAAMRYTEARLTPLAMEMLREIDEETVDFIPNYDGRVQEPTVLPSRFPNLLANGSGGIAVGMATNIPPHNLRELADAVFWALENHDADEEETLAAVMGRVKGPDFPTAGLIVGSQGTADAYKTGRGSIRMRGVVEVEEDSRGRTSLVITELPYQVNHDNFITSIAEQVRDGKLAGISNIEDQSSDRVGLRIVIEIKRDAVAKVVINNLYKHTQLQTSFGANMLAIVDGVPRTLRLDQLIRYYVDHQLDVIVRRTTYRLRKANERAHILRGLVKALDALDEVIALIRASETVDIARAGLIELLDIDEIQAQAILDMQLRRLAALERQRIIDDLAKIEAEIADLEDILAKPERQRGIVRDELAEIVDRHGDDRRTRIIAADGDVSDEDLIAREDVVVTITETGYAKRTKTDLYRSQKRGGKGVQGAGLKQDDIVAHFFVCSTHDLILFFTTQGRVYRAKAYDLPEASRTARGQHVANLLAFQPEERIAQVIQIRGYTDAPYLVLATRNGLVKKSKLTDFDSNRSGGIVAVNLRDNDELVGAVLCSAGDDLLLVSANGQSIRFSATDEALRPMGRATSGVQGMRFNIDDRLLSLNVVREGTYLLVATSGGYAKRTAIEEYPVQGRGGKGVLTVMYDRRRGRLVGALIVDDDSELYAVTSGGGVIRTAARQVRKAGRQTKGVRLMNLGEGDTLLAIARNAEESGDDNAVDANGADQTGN
Mtb gyrase, sequence (P9WG45 whole entry): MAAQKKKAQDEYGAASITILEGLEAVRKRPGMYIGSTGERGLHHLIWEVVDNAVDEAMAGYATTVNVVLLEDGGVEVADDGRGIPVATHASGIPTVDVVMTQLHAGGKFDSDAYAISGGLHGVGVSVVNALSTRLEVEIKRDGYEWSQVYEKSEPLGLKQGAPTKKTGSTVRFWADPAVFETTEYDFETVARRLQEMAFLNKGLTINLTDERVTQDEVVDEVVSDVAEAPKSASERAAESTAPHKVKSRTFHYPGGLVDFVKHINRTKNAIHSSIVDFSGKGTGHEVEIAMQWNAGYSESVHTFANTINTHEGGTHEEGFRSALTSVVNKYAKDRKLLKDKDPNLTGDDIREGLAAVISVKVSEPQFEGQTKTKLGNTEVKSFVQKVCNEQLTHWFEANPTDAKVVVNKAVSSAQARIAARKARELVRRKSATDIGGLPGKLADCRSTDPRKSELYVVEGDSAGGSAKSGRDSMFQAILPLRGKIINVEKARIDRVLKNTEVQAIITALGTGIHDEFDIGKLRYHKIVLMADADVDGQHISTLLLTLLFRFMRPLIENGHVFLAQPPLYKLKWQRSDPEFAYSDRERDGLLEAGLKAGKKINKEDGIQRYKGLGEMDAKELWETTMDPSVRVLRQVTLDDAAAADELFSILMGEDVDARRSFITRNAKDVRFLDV

As to `CCOCCOC(=O)COc1ccc2c(-c3ccccc3)cc(=O)oc2c1` [2-ethoxyethyl [(2-oxo-4-phenyl-2H-chromen-7-yl)oxy]acetate], the “Activity against gyrase at 100 uM” value in assay [1] is on record as “no activity”.
The term IC50 denotes the concentration needed to halve the response being measured. Regarding `Cc1cc(O)c2c(c1)C(=O)C=CC2=O` [7-methyljuglone, reference compound], in assay [2], the “Activity against Mtb ThyX (in words)” value is given as “active” and the IC50 is 35 µM. For the same compound, in assay [1], the “Activity against Mtb gyrase (in words)” value is “active” and half-maximal inhibition (IC50) required 30 µM.
With `O=C1C(Br)=CC(=O)c2c(O)cccc21` [Compound 2E04], in assay [2], the “Activity against Mtb ThyX (in words)” value is reported as “inhibit” and the IC50 came out at 5 µM. In addition, in assay [1], the “Activity against Mtb gyrase (in words)” value was “inactive” and the half-inhibitory concentration (IC50) was more than 50 µM.
Broadly, the MIC is the least concentration at which growth counts as inhibited. Turning to `O=C1C(O)=C(Cc2ccc(-c3ccc(Cl)cc3)cc2)C(=O)c2ccccc21` [Compound 007B], in assay [2], the “% of ThyX inhibition at 100 µM” value is recorded as 21%. Besides, the MIC in assay [3] (H37Rv, read-out: MIC) stood at 20.8 µM (≈ 7.8 µg/mL); in assay [4] (TH 12526, read-out: MIC) it was 41.7 µM (≈ 15.6 µg/mL).
Taken in the same sequence, the figures for `O=C1C(O)=C(Cc2ccc(OC(F)(F)F)cc2)C(=O)c2ccccc21` [Compound 007C] were 78%, 89.7 µM (≈ 31.2 µg/mL) and 44.9 µM (≈ 15.6 µg/mL).
Take `CC(C)Oc1ccc(CC2=C(O)C(=O)c3ccccc3C2=O)cc1` [Compound 007D]: in assay [2], the “% of ThyX inhibition at 100 µM” value is given as 71%. Besides, the minimum inhibitory concentration (MIC) in assay [3] (read-out: MIC) is 96.9 µM (≈ 31.2 µg/mL); in assay [4] (TH 12526, read-out: MIC) it was 96.9 µM (≈ 31.2 µg/mL).
Turning to `O=C1C(O)=C(Cc2ccc(C(F)(F)F)cc2)C(=O)c2ccccc21` [Compound 007F], the “% of ThyX inhibition at 100 µM” value in assay [2] was determined as 74%. Moreover, the minimum inhibitory concentration (MIC) in assay [3] (read-out: MIC) came to 94.1 µM (≈ 31.3 µg/mL); in assay [4] (TH 12526, read-out: MIC) it was 47.0 µM (≈ 15.6 µg/mL).
Taken in the same sequence, the figures for `O=C1C(O)=C(Cc2ccc(Oc3ccccc3)cc2)C(=O)c2ccccc21` [Compound 007G] were 89%, 175.5 µM (≈ 62.5 µg/mL) and 87.8 µM (≈ 31.3 µg/mL).
For the compound `O=C1C(O)=C(Cc2ccc(Cl)cc2)C(=O)c2ccccc21` [Compound 010A], the “% of ThyX inhibition at 100 µM” value in assay [2] was 64%. For the same compound, the minimal inhibitory concentration (MIC) is listed as 52.3 µM (≈ 15.6 µg/mL) in assay [3] (read-out: MIC) and 52.3 µM (≈ 15.6 µg/mL) in assay [4] (TH 12526, read-out: MIC).
Consider `O=C1C(O)=C(Cc2cc(F)cc(F)c2)C(=O)c2ccccc21` [Compound 010B], for which the “% of ThyX inhibition at 100 µM” value in assay [2] is listed as 68%. The minimum inhibitory concentration (MIC) in assay [3] (read-out: MIC) was determined as 104.1 µM (≈ 31.3 µg/mL); in assay [4] (TH 12526, read-out: MIC) it was 104.1 µM (≈ 31.3 µg/mL).
`O=C1C(O)=C(Cc2ccco2)C(=O)c2ccccc21` [Compound 010C]: the “% of ThyX inhibition at 100 µM” value in assay [2] is recorded as 60%. For the same compound, the MIC in assay [3] (read-out: MIC) turned out to be 176.5 µM (≈ 44.9 µg/mL); in assay [4] (TH 12526, read-out: MIC), 176.5 µM (≈ 44.9 µg/mL).
As for `O=C1C(O)=C(Cc2cccs2)C(=O)c2ccccc21` [Compound 010D], the “% of ThyX inhibition at 100 µM” value in assay [2] turned out to be 42%. The minimal inhibitory concentration (MIC) in assay [3] (read-out: MIC) stood at 231.2 µM (≈ 62.5 µg/mL); in assay [4] (TH 12526, read-out: MIC) it was 231.2 µM (≈ 62.5 µg/mL).
Consider `O=C1C(O)=C(Cc2ccc(F)c(C(F)(F)F)c2)C(=O)c2ccccc21` [Compound 010E], for which the “% of ThyX inhibition at 100 µM” value in assay [2] stood at 32%. In addition, the minimum inhibitory concentration (MIC) in assay [3] (read-out: MIC) turned out to be 22.3 µM (≈ 7.81 µg/mL); in assay [4] (TH 12526, read-out: MIC), 22.3 µM (≈ 7.81 µg/mL).
As for `O=C1C(O)=C(Cc2ccc(F)c(Cl)c2)C(=O)c2ccccc21` [Compound 010F], the “% of ThyX inhibition at 100 µM” value in assay [2] was 73%. Moreover, the MIC stood at 197.3 µM (≈ 62.5 µg/mL) in assay [3] (read-out: MIC) and 98.7 µM (≈ 31.3 µg/mL) in assay [4] (TH 12526, read-out: MIC).
Taken in the same sequence, the figures for `COc1cc(CC2=C(O)C(=O)c3ccccc3C2=O)ccc1O` [Compound 010H] were 41%, 201.4 µM (≈ 62.5 µg/mL) and 201.4 µM (≈ 62.5 µg/mL).
Taken in the same sequence, the figures for `CCCCC1=C(O)C(=O)c2ccccc2C1=O` [Compound 010I] were 58%, 135.7 µM (≈ 31.2 µg/mL) and 67.8 µM (≈ 15.6 µg/mL).
The matching figures for `COc1ccc(CC2=C(O)C(=O)c3ccccc3C2=O)cc1OC` [Compound 010K]: 42%, 192.7 µM (≈ 62.5 µg/mL) and 48.2 µM (≈ 15.6 µg/mL).
One may read the Ki as a measure of affinity in units of concentration, obtained from inhibition or displacement. Usually MIC90 stands for the lowest concentration that inhibits either 90% of growth or 90% of the strains tested, depending on the study. On to `CCOC(=O)C1=C(c2ccc(C)cc2)C(=O)c2ccccc2C1=O` [Compound B6, ethyl 3-(4-methylphenyl)-1,4-dioxonaphtalene-2-carboxylate], for which the Ki in assay [2] (from dose response curves versus ThyX) is 4.5 µM. In addition, the MIC90 in assay [5] (Mycobacterium tuberculosis) turned out to be 62.5 µM (≈ 20 µg/mL).
As for `COc1ccc(CC2=C(O)C(=O)c3ccccc3C2=O)cc1` [Compound C8-C1], in assay [2], the “Activity against Mtb ThyX (in words)” value was “inhibit” and the midpoint of inhibition, the IC50, lay at 4.5 µM. In assay [1], the “Activity against Mtb gyrase (in words)” value is “inactive” and the IC50 gyrase result is listed as “No inhibition”.
On to `O=C1C=C(Cc2ccc(F)cc2)C(=O)c2ccccc21` [Compound D4], for which, in assay [5], the MIC90 worked out at 31.2 µM (≈ 8.31 µg/mL).
The same measure, in the same setting: as for `COc1ccc(CC2=CC(=O)c3ccccc3C2=O)cc1` [Compound D5], the figure is 62.5 µM (≈ 17.4 µg/mL).
With `CS(=O)(=O)N1CCN(C2=C(Cl)C(=O)c3ccccc3C2=O)CC1` [Compound E1, 2-chloro-3-(4-methanesulfonylpiperazin-1-yl)-1,4-dihydronaphthalene-1,4-dione], the MIC90 in assay [5] (Mycobacterium tuberculosis) was 62.5 µM (≈ 22.2 µg/mL).
As to `CC(=O)N(C1=C(Cl)C(=O)c2ccccc2C1=O)c1cccc(F)c1` [Compound E10], in assay [5], the MIC90 was found to be 31.2 µM (≈ 10.7 µg/mL).
Consider `O=C1C(Cl)=C(N2CCN(C(=O)c3ccc(F)cc3)CC2)C(=O)c2ccccc21` [Compound F1], for which the MIC90 in assay [5] came out at 31.2 µM (≈ 12.4 µg/mL).
The same measure, in the same setting: as for `CCS(=O)(=O)N1CCN(C2=C(Cl)C(=O)c3ccccc3C2=O)CC1` [Compound F2], the figure is 31.2 µM (≈ 11.5 µg/mL).
For `Cc1cc(O)c2c(c1)C(=O)C(c1c(C)cc3c(c1O)C(=O)C=CC3=O)=CC2=O` [Diospyrin, reference compound], the “IC50 ThyX” value in assay [2] is given as “No inhibition”. For the same compound, in assay [1], the “Activity against Mtb gyrase (in words)” value was “inhibits” and inhibition was half-maximal at 15 µM (IC50).
Regarding `NNC(=O)c1ccncc1` [INH, isoniazid, reference compound], the minimal inhibitory concentration (MIC) was less than 0.91 µM in assay [3] (Mycobacterium tuberculosis, H37RV, read-out: MIC); less than 0.91 µM in assay [4] (Mycobacterium tuberculosis, TH12526, TH 12526, read-out: MIC); 0.25 µg/mL (≈ 1.82 µM) in assay [6].
`COC1=C(OC)C(=O)C(CCCCCCCCCCO)=C(C)C1=O` [Idebenone, idebenone, reference compound]: the inhibition constant (Ki) in assay [2] (uncompetitive with respect to dUMP, converted from measured IC50) was determined as 3.3 µM. Further, the “Mode of inhibition of Mtb ThyX” value in assay [2] (with respect to dUMP) is “uncompetitive”. Besides, the MIC90 in assay [5] (Mycobacterium tuberculosis) and in assay [5] was 125 µM (≈ 42.3 µg/mL) each time.
In assay [1], `Cc1cc2c(c(O)c1-c1c(C)cc(O)c3c1C(=O)C=CC3=O)C(=O)C=CC2=O` [Isodiospyrin, reference compound] yielded an IC50 of 100 µM.
Turning to `CC(C)=CCC/C(C)=C/CC/C(C)=C/CC/C(C)=C/CC/C(C)=C/CC/C(C)=C/CC/C(C)=C/CC/C(C)=C/CC/C(C)=C/CC1=C(C)C(=O)c2ccccc2C1=O` [MK-9, reference compound], the MIC in assay [3] (setting [7]) is given as more than 6.4 µM.
On the same count and under the same terms, for `CC1(S(=O)(=O)[O-])CC(=O)c2ccccc2C1=O.[Na+]` (stereo not shown) [Menadione Bisulfate, reference compound] the value was 311.3 µM.
As to `CC1=CC(=O)c2ccccc2C1=O` [Menadione, reference compound], the “Activity against Mtb gyrase (in words)” value in assay [1] was “inactive”. Also, the MIC in assay [3] (Mycobacterium tuberculosis, H37RV, menadione analogs, 7H9 media with 1% ethanol as a co-solvent, read-out: MIC (H37Rv)) was 98.8 µM (≈ 17 µg/mL).
For `Cc1cc(O)c2c(c1)C(=O)C=C(c1c(C)cc(O)c3c1C(=O)C=CC3=O)C2=O` [Neodiospyrin, reference compound], the IC50 in assay [2] was found to be 20 µM; in assay [1], 50 µM.
Turning to `CO[C@H]1/C=C/O[C@@]2(C)Oc3c(C)c(O)c4c(O)c(c(/C=N/N5CCN(C)CC5)c(O)c4c3C2=O)NC(=O)/C(C)=C\C=C\[C@H](C)[C@H](O)[C@@H](C)[C@@H](O)[C@@H](C)[C@H](OC(C)=O)[C@@H]1C` [RMP, rifampicin, reference compound], the MIC in assay [4] (Mycobacterium tuberculosis, TH12526) is less than 0.3 µM; in assay [6], 0.5 µg/mL (≈ 0.608 µM).
As for `CCCCc1cc(=O)oc2cc(OCC(=O)OCc3ccccc3)c(Cl)cc12` [benzyl [(4-butyl-6-chloro-2-oxo-2H-chromen-7-yl)oxy]acetate], in assay [1], the “Activity against gyrase at 100 uM” value is “no activity”.
On the same count and under the same terms, as for `CCOC(=O)COc1cc2oc(=O)cc(CC)c2cc1Cl` [ethyl [(6-chloro-4-ethyl-2-oxo-2H-chromen-7-yl)oxy]acetate], the entry is “no activity”.
On the same count and under the same terms, as for `COC(=O)COc1cc2oc(=O)cc(-c3ccccc3)c2cc1Cl` [methyl [(6-chloro-2-oxo-4-phenyl-2H-chromen-7-yl)oxy]acetate], the entry is “no activity”; as for `CCCc1cc(=O)oc2cc(OCC(=O)OC)c(Cl)cc12` [methyl [(6-chloro-2-oxo-4-propyl-2H-chromen-7-yl)oxy]acetate], “no activity”; as for `CCc1cc2c(=O)c(-c3ccc(OC)cc3)coc2cc1OCC(=O)OC` [methyl {[6-ethyl-3-(4-methoxyphenyl)-4-oxo-4H-chromen-7-yl]oxy}acetate], “no activity”.
On to `C=CCOC(=O)COc1cc2oc(=O)c(Cc3ccccc3)c(C)c2cc1Cl` [prop-2-en-1-yl 2-[(3-benzyl-6-chloro-4-methyl-2-oxo-2H-chromen-7-yl)oxy]acetate], for which the “Activity against gyrase at 100 uM” value in assay [1] is “no activity”.
